Measured values reported in patent US10562848B2, “Inhibitors of TNF superfamily costimulatory interactions and methods for uses of the same” (UNIVERSITY OF MIAMI, priority 2015, dated 2020).
Where two headings read alike, the source gives them in different places.

How the values were obtained:
human CD40-CD40L = target: T1, human CD40-CD40L (Homo sapiens, UniProt P29965); assay: Cell-free ELISA-type CD40-CD40L binding inhibition assay
T1 construct: purchased Enzo Life Sciences (San Diego, Calif.)
T1 sequence (P29965 116-261 limits assumed): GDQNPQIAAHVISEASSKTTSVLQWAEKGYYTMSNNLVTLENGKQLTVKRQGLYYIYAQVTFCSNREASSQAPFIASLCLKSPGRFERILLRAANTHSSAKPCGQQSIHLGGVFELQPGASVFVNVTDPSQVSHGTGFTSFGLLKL
Procedure: Compounds according to the disclosure were assessed for their ability to inhibit the binding of tagged ligands to plate-bound receptors using ELISA-type 96-well plate-based cell-free assays as described in the literature (see Margolles-Clark et al, J Mol Med 87:1133-1143 (2009); Margolles-Clark et al., Chem Biol Drug Des 76:305-313 (2010); Song et al., Br J Pharmacol 171:4955-4969 (2014); and Ganesan et al., Biochem Pharmacol 81:810-818 (2011)).
Recombinant receptors (hCD40:Fc, TNF-R1:Fc) and tagged ligands (hCD154, MegaCD40L, and TNF-α), were obtained from Enzo Life Sciences (San Diego, Calif.). Microtiter plates (Nunc F Maxisorp; 96-well) were coated overnight at 4° C. with 100 μL/well of Fc chimeric receptors diluted in PBS 7.2. This was followed by blocking with 200 μL/well of blocking solution (PBS 7.2, 0.05% Tween-20, 1% BSA) for 1 hour at room temperature. […] Either anti-FLAG-HRP or streptavidin-HRP conjugate was used to detect the bound FLAG-tagged or biotinylated ligand, respectively. Plates were washed three times before the addition of 120 μL/well of HRP substrate TMB (3, 3′, 5, 5′-tetramethylbenzidine) and kept in the dark for 15-30 min. The reaction was stopped using 30 μL 1M H2SO4, and the absorbance was read at 450 nm. Stock solutions of compounds at 10 mM in DMSO were used.
(§1) Typical concentrations used were as follows—receptors: 0.3 μg/mL for CD40, TNF-R1, and RANK; 0.6 μg/mL for BAFF-R, OX40, and 4-1BB; and 2 μg/mL for EGF-R-ligands: 0.02 μg/mL for CD40L, TNFα, and RANKL; 0.2 μg/ml for BAFF, OX40L, 4-1BBL; and 0.3 μg/mL for EGF. Assays were done in duplicate or triplicate per plate and repeated at least three times; the averaged data were normalized and used for data fitting and analysis. Binding data were fitted using the standard log inhibitor versus response model in GraphPad Prism to determine the corresponding IC50 values.

OX40-OX40L = target: T2, OX40-OX40L (Homo sapiens, UniProt P23510+P43489); assay: Cell-free ELISA-type OX40 binding inhibition assay; details: Table 2
T2 sequence (P43489 29-214 limits assumed): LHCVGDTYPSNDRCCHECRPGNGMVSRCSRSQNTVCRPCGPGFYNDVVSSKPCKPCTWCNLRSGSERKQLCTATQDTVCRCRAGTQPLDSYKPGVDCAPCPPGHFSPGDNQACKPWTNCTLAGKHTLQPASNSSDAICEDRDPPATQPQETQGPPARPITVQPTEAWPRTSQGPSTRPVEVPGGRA
T2 sequence (P23510 51-183 limits assumed): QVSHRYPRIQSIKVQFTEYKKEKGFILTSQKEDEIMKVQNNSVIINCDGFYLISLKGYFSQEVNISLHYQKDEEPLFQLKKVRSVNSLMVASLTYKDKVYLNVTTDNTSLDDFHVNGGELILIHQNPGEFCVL
Procedure: as §1

[1] = tested on: TNFSF costimulatory interactions; details: literature; cited from earlier work
[2] = tested on: CD40L-induced proliferation of human CD19+ B cells; assay: Inhibition of CD40L-induced human CD19+ B-cell proliferation (BrdU); format: cell-based
Procedure: Because CD40 stimulation is an important signal for B cell proliferation, soluble CD40L can concentration-dependently induce the proliferation of human B cells.
Inhibition of cell proliferation was determined in freshly isolated human CD19^+ B cells using the colorimetric cell proliferation ELISA BrdU kit from Roche Applied Science (Indianapolis, Ind.). B cells were isolated from the PBMC as follows. Briefly, cells were washed three times with medium (RPMI 1640) and incubated for 20 min at 4° C. with 20 μL/10^7 cells of anti-CD19 Microbeads (Miltenyi Biotech, Bergisch Gladbach, Germany), according to the MiniMacs protocol (Miltenyi Biotech). Cells were then purified using magnetic columns. […] Cells were cultured in 96 wells plates (100 μL/well) at a cell density of 2×10^5 cells/mL in IMDM medium supplemented with 5% FBS, 100 U/mL penicillin, streptomycin 100 μg/mL, insulin-transferrin-selenium-G (all materials from Invitrogen, San Diego, Calif.) and 10 […] (R&D Systems). […] After 48 h, BrdU labeling solution was added as recommended, and cells were cultivated for another 48 h. Detection of incorporated BrdU was carried out following the instructions of the ELISA BrdU kit.
Data are average±SD for n=3 independent experiments with triplicates for each condition using a standard BrdU assay (Roche).

[3] = tested on: CD40L-induced NF-κB activation in CD40 sensor cells (HEK Blue); assay: Inhibition of CD40L-induced NF-κB activation in CD40 sensor cells (HEK-Blue); format: cell-based, human; details: CD40L 20 ng/mL, 18 h
From the text: Activities of the compounds of the disclosure were confirmed in cell-based assays. As a first example, TNF-R1 and CD40 expressing sensor cells (HEK-Blue; InvivoGen, San Diego, Calif.) were used as described in the literature (see Song et al., Br J Pharmacol 171:4955-4969 (2014) and Cechin et al., Steroids 85:36-43 (2014)).
Cells were maintained in DMEM at 80% confluence for each experiment. Cells were trypsinized and re-suspended in the same medium with 1% FBS and seeded on 96-well microtiter plates at a density of 1×10^5 cells/well in the absence and presence of various concentrations of compounds diluted in the same media. For ligand mediated stimulation, final concentrations of recombinant human TNFα (2 ng/mL) and CD40L (20 ng/mL) were maintained in the wells for this purpose. After 18-hour incubation at 37° C., 20 μL supernatant of each well were taken and added to another 96-well microtiter plate containing 180 μL/well of QUANTI-Blue (InvivoGen, CA). The level of SEAP was determined after 30-minute incubation at 37° C. by reading at 625 nm using a spectrophotometer. […] Data are average±SD (normalized to CD40L-activated cells alone) for n=4 independent experiments with duplicates for each condition.

Molecule	IC50 (human CD40-CD40L; IC50 CD40, Table 2) [µM]	inhibition of human CD40-CD40L binding (in words) (human CD40-CD40L; cell-free binding)	IC50 (OX40-OX40L) [µM]	activity of other small molecule inhibitors (in words) [1]	further results
O=C(Nc1ccc(-c2ccc(C(=O)Nc3cccc4cccc(S(=O)(=O)O)c34)cc2)cc1)c1ccc2[nH]nnc2c1 [Compound 21080]	1	concentration-dependent inhibition	26.3	–	–
Nc1ccc(C(=O)Nc2ccc(-c3ccc(C(=O)Nc4cccc5cccc(S(=O)(=O)O)c45)cc3)cc2)cc1 [Compound 21042]	301	concentration-dependent inhibition	12.8	–	–
Cc1cc(S(=O)(=O)[O-])ccc1N=Nc1ccc(N=Nc2c(O)ccc3cccc(S(=O)(=O)[O-])c23)c(C)c1.[Na+].[Na+] [crocein scarlet 7B]	–	–	–	active in the low μM range	–
mordant brown	–	–	–	active in the low μM range	–
Nc1ccc2cc(S(=O)(=O)[O-])cc(O)c2c1N=Nc1ccc(-c2ccc(N=Nc3c(N)ccc4cc(S(=O)(=O)[O-])cc(O)c34)cc2)cc1.[Na+].[Na+] [chlorazol violet N]	–	–	–	active in the low μM range	–
COC(=O)c1cccc2c(NC(=O)c3ccc(-c4ccc(NC(=O)c5ccc([N+](=O)[O-])cc5)cc4)cc3)cccc12 [Compound 24541]	–	–	6560	–	IC50 (human CD40-CD40L; Table 2, read-out: IC50 CD40): 916 µM
O=C(Nc1ccc(-c2ccc(C(=O)Nc3ccc(S(=O)(=O)O)c4ccccc34)cc2)cc1)c1ccc([N+](=O)[O-])cc1 [Compound 25041]	2.3	concentration-dependent inhibition	7	–	–
O=C([O-])C1=NN(c2ccc(S(=O)(=O)[O-])cc2)C(=O)C1N=Nc1ccc(S(=O)(=O)[O-])cc1.[Na+].[Na+].[Na+] (stereo not shown) [Tartrazine, reference compound]	–	inactive	–	–	inhibition of CD40L-induced human CD19+ B-cell proliferation (in words) [2]: no proliferation inhibiting activity
O=C(Nc1ccc2c(O)c(N=Nc3ccc(N=Nc4ccc(S(=O)(=O)[O-])cc4)cc3S(=O)(=O)[O-])c(S(=O)(=O)[O-])cc2c1)Nc1ccc2c(O)c(N=Nc3ccc(N=Nc4ccc(S(=O)(=O)[O-])cc4)cc3S(=O)(=O)[O-])c(S(=O)(=O)[O-])cc2c1.[Na+].[Na+].[Na+].[Na+].[Na+].[Na+] [DR80, direct red 80, reference compound]	–	–	–	active in the low μM range	IC50 (human CD40-CD40L; cell-free binding, n=3 independent experiments, read-out: IC50, inhibition of the CD40-CD40L interaction): 2.26 µM; IC50 [3]: 42.7 µM
